{"source": "patent US7605142B2", "about": "“Expression of cyclin G1 in tumors” (University of Southern California, priority 1995, dated 2009)", "test_system": "MG-63 cells", "assay": "Ganciclovir cytotoxicity/bystander effects in HStk vector transduced MG-63 cells", "format": "cell-based, human", "settings": "GCV 20 μg/ml, 10 days", "procedure": "Initial dose-response studies determined the sensitivity of MG-63 cells and the optimal concentrations of G418 used to select transduced cells. Upon G418 selection, varying proportions of HStk-transduced and non-transduced MG-63 cells (plating density 2.5×10^4 cells) were exposed to 20 μg GCV/ml D10 in each of six-well plates, for 10 days. […] Bystander effects of GCV treatment were compared to those in HStk-transduced NIH 3T3 cells (ATCC No. CRL 1658).", "data": [{"smiles": "Nc1nc(O)c2ncn(COC(CO)CO)c2n1", "note": "[GCV, ganciclovir]", "values": [{"measurement": "degree of confluency", "setting": "10% HStk+/90% HStk− MG-63 cells", "value": 15, "unit": "%"}, {"measurement": "degree of confluency", "setting": "30% HStk+/70% HStk− MG-63 cells", "value": 15, "unit": "%"}, {"measurement": "degree of confluency", "setting": "50% HStk+/50% HStk− MG-63 cells", "value": 10, "unit": "%"}, {"measurement": "degree of confluency", "setting": "100% HStk− (non-transduced) MG-63 cells", "value": 75, "unit": "%"}, {"measurement": "degree of confluency", "setting": "greater than 50% HStk+ MG-63 cells", "value": "< 10", "unit": "%"}]}]}
